In publication PMC10802587 (bioRxiv, 2024):
“Also recorded” adds a separate entry of the source. Where two headings read alike, the source gives them in different places.

Key:
[1] = test system: SalA resistant Dd2-Polδ lines (PRELI domain-containing protein mutants); experiment: In vitro drug susceptibility assay, SalA selected PRELI mutant lines; type: cell-based, P. falciparum
W2 ring stage cultures [2] = experiment: Stage specific killing assay; type: cell-based, P. falciparum; conditions: 10 μM, ring stage W2 parasites, smears every twelve hours
3D7 ring-stage parasites [3] = experiment: P. falciparum rate of kill assay; type: cell-based; conditions: compared with chloroquine, pyrimethamine, atovaquone
[4] = test system: synchronized ring stage W2 parasites; experiment: 72-hour parasite growth; type: cell-based, P. falciparum; conditions: for EC50: Plasmodium falciparum
[5] = test system: Human Foreskin Fibroblasts; experiment: Human cell cytotoxicity assay; type: cell-based; conditions: at concentrations up to 50 μM, 72 h, HFF
[6] = test system: synchronized W2 ring stage parasites; experiment: Lipidomic analysis of treated parasites; type: cell-based, P. falciparum; conditions: 900 nM, 24 hours versus DMSO (Figure 5B)
recombinant PfMAGL = recombinant PfMAGL (Plasmodium falciparum, UniProt Q8IJ22); type: biochemical, P. falciparum
Chain of recombinant PfMAGL (Q8IJ22 1-359): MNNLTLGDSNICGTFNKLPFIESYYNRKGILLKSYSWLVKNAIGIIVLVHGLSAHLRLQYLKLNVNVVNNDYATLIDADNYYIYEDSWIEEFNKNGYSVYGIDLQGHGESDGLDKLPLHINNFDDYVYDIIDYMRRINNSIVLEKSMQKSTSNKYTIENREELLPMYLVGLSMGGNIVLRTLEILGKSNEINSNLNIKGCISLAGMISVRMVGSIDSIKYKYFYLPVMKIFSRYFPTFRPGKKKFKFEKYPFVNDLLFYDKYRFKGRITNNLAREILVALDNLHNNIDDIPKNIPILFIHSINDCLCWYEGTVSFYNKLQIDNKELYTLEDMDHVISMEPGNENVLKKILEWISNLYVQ

[7] = test system: global palmitoylation in infected red blood cells; experiment: Global palmitoylation; type: cell-based, P. falciparum; conditions: after 16 hours 17-ODYA incubation
[8] = test system: abH112 cKD and control NF54 parasites; experiment: Susceptibility of abH112 cKD and NF54 parasites +/- aTC; type: cell-based, P. falciparum; conditions: presence and absence of aTC
parasite food vacuole = experiment: Food vacuole visualization; type: cell-based, P. falciparum; conditions: 5 μM for 16 hrs; reduction not significant
W2 ring stage cultures [9] = conditions: ref Yoo et al., 2020; cited from earlier work
3D7 ring-stage parasites [10] = conditions: known fast, medium, slow acting inhibitors; ref Sanz et al., 2012; cited from earlier work
hMAGL = biological target: T1, hMAGL (Homo sapiens, UniProt Q99685); experiment: hMAGL inhibition assay; type: biochemical
T1 sequence (Q99685 1-303): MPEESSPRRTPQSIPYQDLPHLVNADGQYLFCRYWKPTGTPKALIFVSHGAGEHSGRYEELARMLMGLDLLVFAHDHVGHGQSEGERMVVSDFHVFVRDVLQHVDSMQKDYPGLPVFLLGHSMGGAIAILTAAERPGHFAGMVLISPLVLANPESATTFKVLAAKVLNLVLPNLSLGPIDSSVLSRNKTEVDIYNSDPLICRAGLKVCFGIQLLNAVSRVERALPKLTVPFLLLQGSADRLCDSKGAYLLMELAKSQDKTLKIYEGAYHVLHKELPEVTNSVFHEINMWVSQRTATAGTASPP

[11] = 72 h, read-out: EC50 parasite growth

CCCCCCCCCCCCCCCP(=O)(OCC)Oc1cc(F)cc(F)c1 (stereo not drawn) [Compound 22]
increase in EC50, PRELI mutant parasites compared to Dd2-Polδ parental line [1]: 7–10 fold
blood stage where growth was arrested (W2 ring stage cultures [2]): arrested in growth at 24 hours
rate of kill (in words) (3D7 ring-stage parasites [3]): faster than pyrimethamine, but not as fast as chloroquine
rescue of killing phenotype by palmitate and oleate supplementation ([4]; 5 µM compound, 30 µM palmitate, oleate or both, 72 hours): did not rescue
drop in potency, 1 hour pulse compared to continuous treatment ([4]; 1 hour treatment followed by washout): ten-fold drop in potency
EC50 [4, 11]: 188 nM
EC50 ([4]; read-out: EC50 after 1 hour treatment and washout): 1330 nM
impact on mammalian cell viability [5]: no impact on mammalian cell viability
changes in lipid classes [6]: downregulation of both ceramides and diacylglycerides
potency against recombinant PfMAGL (in words) (recombinant PfMAGL): picomolar inhibitors; also recorded: pM inhibitors
changes in global palmitoylation [7]: did not observe any changes in global palmitoylation
effect of abH112 knockdown on parasite susceptibility to compound [8]: did not affect parasite susceptibility
food vacuole size (parasite food vacuole): small reduction in food vacuole size

CCCCCCCCCCCCCCCP(=O)(OCC)Oc1c(F)cccc1F (stereo not drawn) [Compound 21]
blood stage where growth was arrested (W2 ring stage cultures [2]): progressed through the blood stage lifecycle
parasite killing ([4]; at concentrations up to 20 μM, 72 hours, W2): no killing
potency against recombinant PfMAGL (in words) (recombinant PfMAGL): picomolar inhibitors; also recorded: pM inhibitors
changes in global palmitoylation [7]: did not observe any changes in global palmitoylation

CCCCCCCCCCC[C@@H](C[C@@H]1OC(=O)[C@H]1CCCCCC)OC(=O)[C@H](CC(C)C)NC=O [Orlistat]
blood stage where progression is blocked (W2 ring stage cultures [9]): block progression at the late schizont stage

O=C1C(O)=C([C@H]2CC[C@H](c3ccc(Cl)cc3)CC2)C(=O)c2ccccc21 [atovaquone]
rate of kill class of known inhibitors (3D7 ring-stage parasites [10]): slow

CCN(CC)CCCC(C)Nc1ccnc2cc(Cl)ccc12 (stereo not drawn) [chloroquine]
rate of kill class of known inhibitors (3D7 ring-stage parasites [10]): fast

CCCCCCCCCCCCCCC(Br)C(=O)O (stereo not drawn) [Compound 2-BP, 2-bromopalmitate, reference compound]
changes in global palmitoylation [7]: changes in patterns of palmitoylation

C#CCCCCP(=O)(OCC)Oc1ccc(S(=O)(=O)F)cc1 (stereo not drawn) [Compound 2]
EC50 [4, 11]: 1600 nM
potency against hMAGL (in words) (hMAGL): highest potency

CCc1nc(N)nc(N)c1-c1ccc(Cl)cc1 [pyrimethamine]
rate of kill class of known inhibitors (3D7 ring-stage parasites [10]): medium
